Reference: PubChem BioAssay (NCI)
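Abbreviation: GI50, concentration required for 50% inhibition of growth. TGI denotes the concentration required for complete inhibition of growth.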

Experiments:
Experiment in all cases: NCI-60 cell line screen, 384-well format
786-0 renal = tested on: 786-0 renal
A498 renal = tested on: A498 renal
A549 NSCLC = tested on: A549 NSCLC
ACHN renal = tested on: ACHN renal
BT-549 breast = tested on: BT-549 breast
CAKI-1 renal = tested on: CAKI-1 renal
CCRF-CEM leukemia = tested on: CCRF-CEM leukemia
COLO 205 colon = tested on: COLO 205 colon
DU-145 prostate = tested on: DU-145 prostate
EKVX NSCLC = tested on: EKVX NSCLC
HCC-2998 colon = tested on: HCC-2998 colon
HCT-15 colon = tested on: HCT-15 colon
HL-60(TB) leukemia = tested on: HL-60(TB) leukemia
HOP-62 NSCLC = tested on: HOP-62 NSCLC
HOP-92 NSCLC = tested on: HOP-92 NSCLC
HS 578T breast = tested on: HS 578T breast
HT29 colon = tested on: HT29 colon
IGROV1 ovarian = tested on: IGROV1 ovarian
KM12 colon = tested on: KM12 colon
M14 melanoma = tested on: M14 melanoma
MALME-3M melanoma = tested on: MALME-3M melanoma
MCF7 breast = tested on: MCF7 breast
MDA-MB-231 breast = tested on: MDA-MB-231 breast
MDA-MB-435 melanoma = tested on: MDA-MB-435 melanoma
MDA-MB-468 breast = tested on: MDA-MB-468 breast
MOLT-4 leukemia = tested on: MOLT-4 leukemia
NCI-H226 lung = tested on: NCI-H226 lung
NCI-H23 lung = tested on: NCI-H23 lung
NCI-H322M lung = tested on: NCI-H322M lung
NCI-H460 NSCLC = tested on: NCI-H460 NSCLC
NCI-H522 lung = tested on: NCI-H522 lung
NCI/ADR-RES ovarian = tested on: NCI/ADR-RES ovarian
OVCAR-3 ovarian = tested on: OVCAR-3 ovarian
OVCAR-4 ovarian = tested on: OVCAR-4 ovarian
OVCAR-5 ovarian = tested on: OVCAR-5 ovarian
OVCAR-8 ovarian = tested on: OVCAR-8 ovarian
PC-3 prostate = tested on: PC-3 prostate
RPMI-8226 leukemia = tested on: RPMI-8226 leukemia
RXF 393 renal = tested on: RXF 393 renal
SF-268 CNS = tested on: SF-268 CNS
SF-295 CNS = tested on: SF-295 CNS
SF-539 CNS = tested on: SF-539 CNS
SK-MEL-2 melanoma = tested on: SK-MEL-2 melanoma
SK-MEL-28 melanoma = tested on: SK-MEL-28 melanoma
SK-MEL-5 melanoma = tested on: SK-MEL-5 melanoma
SK-OV-3 ovarian = tested on: SK-OV-3 ovarian
SN12C renal = tested on: SN12C renal
SNB-19 CNS = tested on: SNB-19 CNS
SNB-75 CNS = tested on: SNB-75 CNS
SR leukemia = tested on: SR leukemia
SW-620 colon = tested on: SW-620 colon
T-47D breast = tested on: T-47D breast
TK-10 renal = tested on: TK-10 renal
U251 glioblastoma = tested on: U251 glioblastoma
UACC-257 melanoma = tested on: UACC-257 melanoma
UACC-62 melanoma = tested on: UACC-62 melanoma

SMILES: COc1cccc(-c2cc(=O)c3ccccc3o2)c1N
- GI50 (786-0 renal): > 100 µM
- TGI (786-0 renal): > 100 µM
- GI50 (A498 renal): 49.7 µM
- TGI (A498 renal): > 100 µM
- GI50 (A549 NSCLC): > 100 µM
- TGI (A549 NSCLC): > 100 µM
- GI50 (ACHN renal): > 100 µM
- TGI (ACHN renal): > 100 µM
- GI50 (BT-549 breast): 77.3 µM
- TGI (BT-549 breast): > 100 µM
- GI50 (CAKI-1 renal): > 100 µM
- TGI (CAKI-1 renal): > 100 µM
- GI50 (CCRF-CEM leukemia): 23.1 µM
- TGI (CCRF-CEM leukemia): 67.6 µM
- GI50 (COLO 205 colon): 3.97 µM
- TGI (COLO 205 colon): 10.8 µM
- GI50 (DU-145 prostate): 54.9 µM
- TGI (DU-145 prostate): > 100 µM
- GI50 (EKVX NSCLC): 37.1 µM
- TGI (EKVX NSCLC): > 100 µM
- GI50 (HCC-2998 colon): 13.8 µM
- TGI (HCC-2998 colon): 58 µM
- GI50 (HCT-15 colon): 91.8 µM
- TGI (HCT-15 colon): > 100 µM
- GI50 (HL-60(TB) leukemia): 2790 nM
- TGI (HL-60(TB) leukemia): 21.2 µM
- GI50 (HOP-62 NSCLC): 33.1 µM
- TGI (HOP-62 NSCLC): > 100 µM
- GI50 (HOP-92 NSCLC): 56.1 µM
- TGI (HOP-92 NSCLC): > 100 µM
- GI50 (HS 578T breast): 47.7 µM
- TGI (HS 578T breast): > 100 µM
- GI50 (HT29 colon): 13.2 µM
- TGI (HT29 colon): > 100 µM
- GI50 (IGROV1 ovarian): 30.7 µM
- TGI (IGROV1 ovarian): > 100 µM
- GI50 (KM12 colon): 40.7 µM
- TGI (KM12 colon): > 100 µM
- GI50 (M14 melanoma): 3.91 µM
- TGI (M14 melanoma): 20 µM
- GI50 (MALME-3M melanoma): 2250 nM
- TGI (MALME-3M melanoma): 5.26 µM
- GI50 (MCF7 breast): 88.1 µM
- TGI (MCF7 breast): > 100 µM
- GI50 (MDA-MB-231 breast): 40.4 µM
- TGI (MDA-MB-231 breast): > 100 µM
- GI50 (MDA-MB-435 melanoma): 10.4 µM
- TGI (MDA-MB-435 melanoma): > 100 µM
- GI50 (MDA-MB-468 breast): 278 nM
- TGI (MDA-MB-468 breast): 844 nM
- GI50 (MOLT-4 leukemia): 25.9 µM
- TGI (MOLT-4 leukemia): 66.5 µM
- GI50 (NCI-H226 lung): 25 µM
- TGI (NCI-H226 lung): 70.2 µM
- GI50 (NCI-H23 lung): 23.9 µM
- TGI (NCI-H23 lung): 99.5 µM
- GI50 (NCI-H322M lung): > 100 µM
- TGI (NCI-H322M lung): > 100 µM
- GI50 (NCI-H460 NSCLC): 66.1 µM
- TGI (NCI-H460 NSCLC): > 100 µM
- GI50 (NCI-H522 lung): 30 µM
- TGI (NCI-H522 lung): > 100 µM
- GI50 (NCI/ADR-RES ovarian): 25.1 µM
- TGI (NCI/ADR-RES ovarian): 74.7 µM
- GI50 (OVCAR-3 ovarian): 65 µM
- TGI (OVCAR-3 ovarian): > 100 µM
- GI50 (OVCAR-4 ovarian): 28.1 µM
- TGI (OVCAR-4 ovarian): > 100 µM
- GI50 (OVCAR-5 ovarian): 43.1 µM
- TGI (OVCAR-5 ovarian): > 100 µM
- GI50 (OVCAR-8 ovarian): 38 µM
- TGI (OVCAR-8 ovarian): > 100 µM
- GI50 (PC-3 prostate): > 100 µM
- TGI (PC-3 prostate): > 100 µM
- GI50 (RPMI-8226 leukemia): 34.4 µM
- TGI (RPMI-8226 leukemia): > 100 µM
- GI50 (RXF 393 renal): 46.4 µM
- TGI (RXF 393 renal): > 100 µM
- GI50 (SF-268 CNS): > 100 µM
- TGI (SF-268 CNS): > 100 µM
- GI50 (SF-295 CNS): > 100 µM
- TGI (SF-295 CNS): > 100 µM
- GI50 (SF-539 CNS): > 100 µM
- TGI (SF-539 CNS): > 100 µM
- GI50 (SK-MEL-2 melanoma): 27.3 µM
- TGI (SK-MEL-2 melanoma): 55.7 µM
- GI50 (SK-MEL-28 melanoma): 4.03 µM
- TGI (SK-MEL-28 melanoma): 9.78 µM
- GI50 (SK-MEL-5 melanoma): 10.8 µM
- TGI (SK-MEL-5 melanoma): 37.9 µM
- GI50 (SK-OV-3 ovarian): 79.7 µM
- TGI (SK-OV-3 ovarian): > 100 µM
- GI50 (SN12C renal): 72.4 µM
- TGI (SN12C renal): > 100 µM
- GI50 (SNB-19 CNS): > 100 µM
- TGI (SNB-19 CNS): > 100 µM
- GI50 (SNB-75 CNS): 41.1 µM
- TGI (SNB-75 CNS): > 100 µM
- GI50 (SR leukemia): 31.3 µM
- TGI (SR leukemia): 96.5 µM
- GI50 (SW-620 colon): 18.8 µM
- TGI (SW-620 colon): > 100 µM
- GI50 (T-47D breast): 59.3 µM
- TGI (T-47D breast): > 100 µM
- GI50 (TK-10 renal): > 100 µM
- TGI (TK-10 renal): > 100 µM
- GI50 (U251 glioblastoma): 97.2 µM
- TGI (U251 glioblastoma): > 100 µM
- GI50 (UACC-257 melanoma): 5.54 µM
- TGI (UACC-257 melanoma): 37.2 µM
- GI50 (UACC-62 melanoma): 4.95 µM
- TGI (UACC-62 melanoma): 28.9 µM
